This is an account of results in patent publication US12673083B2, “TREM-1 inhibitors for the treatment of vaso-occlusions and tissue injuries in patients suffering from sickle cell disease” (INSERM (INSTITUT NATIONAL DE LA SANTÉ ET DE LA RECHERCHE …, priority 2019, dated 2026).

“Also recorded” adds a separate entry of the source.

One assay concerns neutrophils. Description: Intravital microscopy of neutrophils in post-capillary venous microcirculation of the cremaster after TNFα injection. It is filed as in vivo, HbSS knock-in sickle cell mice. The settings on record: HbSS mice. As for the experimental part:
(§1) Experiments were performed on 4-6 week-old sex matched healthy control (Hba^tm1(HBA)Tow Hbb^tm3(HBG1,HBB) Tow) (HbAA (hα/hα::β^A/β^A)) and SCD (Hba^tm1(HBA)Tow Hbb^tm2(HBG1,HBB*)Tow) (HbSS (hα/hα::βS/βS)) mice as well as SAD transgenic sickle mice with or without Trem-1 gene deletion (TREM-1 KO). The animal protocol was approved by the Paris Descartes University Animal Care and Use Committee and the French Ministry of Agriculture. Animals were anesthetized with isoflurane, and whole blood was collected from each mouse via retro-orbital venipuncture by heparinized microcapillaries. In anesthetized animals, organs were immediately removed and divided into two and either immediately frozen in liquid nitrogen or fixed in 10% formalin and embedded in paraffin for histology.
To characterize in vivo the effects of the TREM-1 pathway on neutrophils recruitment, we used a protocol as previously described (Koehl B et al. Haematologica. 2017 July; 102(7):1161-1172). Male mice were anaesthetized by spontaneous inhalation of isoflurane and maintained at 37° C. with a heating pad. The left jugular vein was cannulated to administer drugs and antibodies. […] 2 h after TNFα injection, the cremaster muscle was incised and neutrophils were monitored by injection of labeled Phycoerythrin-conjugated anti-Ly6G antibody (0.05 μg/g body weight, clone RB6-8C5, BD Biosciences Pharmingen). Venules were visualized with an intravital microscope (Zeiss Examiner D1) equipped with a water-immersion objective (Zeiss Plan-Apochromat 20×/1.0 NA) and fluorescence excitation was made through a Lambda DG-4 high-speed wavelength switcher (Sutter Instrument). […] Images were analyzed using SlideBook 6.0 software (Intelligent Imaging Innovations). The neutrophil rolling flux fraction, adhesion density, adhesion efficiency and transmigration were measured using playback assessment of 3-min digital time-lapse videos and 3D z-stack recordings of single unbranched venules (3 venules per mouse, 20-40 μm) from 2.5 hours to 5 hours after the TNFα challenge at 30-min intervals. […]

For a further assay, the system named is Ter 119+ erythrocytes. Description: Hypoxia-reoxygenation experimental vaso-occlusive crisis: vascular congestion with erythrocytes on histological sections. It is filed as in vivo, sickle cell mice (SS). As for the experimental part: as §1
(§2) In order to test the pharmacological inhibition of TREM-1 on erythrocyte vascular congestion and neutrophils infiltrates, homozygous HbS (SS) mice were subjected to 14 hours hypoxia (8% oxygen) and then 1 hours reoxygenation (21% oxygen) to trigger acute vaso-occlusive crisis as previously described (Sabaa N et al. J Clin Invest. 2008 May; 118(5):1924-33). The TREM-1 inhibitory peptide for each of the hypoxia-reoxygenation experiments was administered by intraperitoneal injection just prior to the onset of hypoxia, as well as at the end of hypoxia, at the beginning of the reoxygenation phase. These conditions reproduce a situation of severe hypoxia for SCD, provoking crises and damage related to ischemia-reperfusion. After this experiment, the tissues were analyzed in the same way as for the SS mice in the base state.

Another assay relates to neutrophils (PMNs). As to the kind of experiment: Hypoxia-reoxygenation experimental vaso-occlusive crisis: abundance of neutrophils on histological sections. It is filed as in vivo, sickle cell mice (SS). How it is done: as §1, §2
The mark [1] stands for this setting: histological sections of lung, SS LR12 vs SS PBS.

Take “LR12: 12 amino-acid TREM-1 inhibitory peptide LQEEDAGEYGCM, N-terminal 12 amino-acids of LR17 (TLT-1 derived) (Synthetic LR12)”: the neutrophil rolling result with neutrophils (between 3 h and 4 h30 post-injection of TNFα, LR12 6 mg/kg 10 min before and 3 mg/kg 3 h15 after TNFα, 2way ANOVA P value=0.0041) is on record as “significant reduction; also recorded: reduces”. Moreover, the neutrophil transmigration result in the assay with neutrophils (from 3 h to 5 h post-TNFα, 2way ANOVA P value <0.0001) is reported as “significant reduction; also recorded: reduces”. In the assay on neutrophils (throughout the experiment after TNFα, 2way ANOVA P value <0.0001), the neutrophil adhesion result is on record as “significant reduction; also recorded: reduces”. Besides, the “vascular congestion with Ter 119+ erythrocytes, liver” value in the assay with Ter 119+ erythrocytes (histological sections of liver, SS LR12 vs SS PBS, intraperitoneal, hypoxia-reoxygenation) is “significant reduction”. In addition, the “vascular congestion with Ter 119+ erythrocytes, lung” value in the assay with Ter 119+ erythrocytes (setting [1]) is “not in lung sections”. Besides, in the assay on Ter 119+ erythrocytes (histological sections of renal medulla, SS LR12 vs SS PBS), the “vascular congestion with Ter 119+ erythrocytes, renal medulla” value was “significant reduction”. In addition, in the assay on Ter 119+ erythrocytes (histological sections of spleen, SS LR12 vs SS PBS), the “vascular congestion with Ter 119+ erythrocytes, spleen” value is reported as “significant reduction”. Moreover, the “vascular congestion of tissues” value with Ter 119+ erythrocytes (tissues of sickle cell mice (summary statement, FIGS. 3A-3D)) is on record as “significant reduction”. The “abundance of neutrophils, liver (% green fluorescent surface)” value in the assay with neutrophils (PMNs) (histological sections of liver, SS LR12 vs SS PBS) is reported as “significant reduction”. Moreover, in the assay with neutrophils (PMNs) (setting [1]), the “abundance of neutrophils, lung (% green fluorescent surface)” value was “significant reduction”. For the same substance, the “abundance of neutrophils in tissues” value in the assay with neutrophils (PMNs) (tissues of sickle cell mice during experimental vaso-occlusive crisis (summary statement, FIGS. 4A and 4B)) is given as “significant reduction”.
